Measurements reported in US12275733B2, “Substituted pyrido[3,4-b]indoles for the treatment of cartilage disorders” (Sanofi, priority 2016, dated 2025).

What was measured:
[1] = tested on: ATDC5 cells; test: Chondrogenesis activity assay in ATDC5 cells (collagen type II induction, immunofluorescence); assay type: cell-based, mouse; conditions: Mus musculus; for EC50: collagen type II induction in ATDC5 cells, concentration reaching 50% of maximum induction; for Emax: maximum percent induction of collagen type II relative to internal reference compound at 10 μM, ATDC5 cells
Summary of the method: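 Collagen type II was stained in fixed, permeabilized cells with an Alexa Fluor 488 secondary and measured by high-content fluorescence imaging. ATDC5 cells had 4 days at 37 °C in insulin-supplemented differentiation medium with compound, typically 40 nM–10 μM, 0.1% DMSO. DMSO wells and a 10 μM internal reference compound were used for normalization.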

[2] = tested on: primary human chondrocyte pellet cultures; test: Chondrogenesis activity assay in primary human chondrocyte pellet cultures (proteoglycan (aggrecan) induction, Blyscan assay); assay type: cell-based; conditions: for EC50: 336 h, proteoglycan (aggrecan) induction, primary human chondrocyte pellets, 2 weeks culture; for Emax: Homo sapiens, Chondrocyte, maximum percent proteoglycan (aggrecan) induction relative to the internal reference compound at 10 μM

EC50 [1] [µM] | SMILES | Emax [1] [%] | EC50 [2] [µM] | Emax [2] [%]
> 1.1 | Cc1nccc2c1[nH]c1c(-c3ccc(OCc4nccc5ccccc45)cc3)cc(Cl)cc12 [Example 270, 6-Chloro-8-[4-(isoquinolin-1-ylmethoxy)-phenyl]-1-methyl-9H-pyrido[3,4-b]indole] | 20 to 50 | 4.3 | 40 to 100
> 3.3 | Cc1nccc2c1[nH]c1c(-c3cccc(OCc4nccn4C)c3)cc(Cl)cc12 [Example 271, 6-Chloro-1-methyl-8-[3-(1-methyl-1H-imidazol-2-ylmethoxy)-phenyl]-9H-pyrido[3,4-b]indole] | 20 to 50 | 4.9 | > 200
0.52 | Clc1cc(-c2cnn(Cc3cccnc3)c2)c2c(c1)c1ccncc1n2CC1CC1 [Example 288, 6-Chloro-9-cyclopropylmethyl-8-(1-pyridin-3-ylmethyl-1H-pyrazol-4-yl)-9H-pyrido[3,4-b]indole] | > 80 | 1.2 | > 200
